According to patent publication US10295552B2, “Method for diagnosis of primary hyperaldosteronism” (ATTOQUANT D[…], priority 2013, dated 2019):

The compounds below were run on aldosterone-to-angiotensin II ratio (AA2R) (assay: Aldosterone-to-angiotensin II ratio (AA2R) before and 4 h after a single dose of a RAS blocker). Settings: 5 healthy volunteers, 4 h post administration vs predose, heparin plasma equilibrated 60 min at 37° C.
Format: in vivo, human
Method: (§1) FIG. 5: Comparison of the impact of RAS blocker administration on the ARR (upper panel) and the AA2R (lower panel). Plasma samples were collected from healthy volunteers before (Predose) and 4 h post administration of a single dose of an ACE inhibitor (left), renin inhibitor (middle) or angiotensin receptor blocker (ARB, right). Plasma aldosterone concentration, equilibrium angiotensin II concentration and active renin concentration were measured and the ARR and the AA2R was calculated for each sample. For calculation of the ARR, aldosterone concentrations in ng/L were divided by the plasma active renin concentration in ng/L. For calculation of the AA2R, aldosterone concentrations in pmol/L were divided by Ang II concentrations in pmol/L. Mean values of 5 healthy volunteers+/−SEM are shown in the graphs.
Single doses of three different anti-hypertensive drugs were administered to 5 healthy volunteers on 3 different treatment days separated by one week. […]
Equilibrium Ang II levels were determined by quantification of the steady-state angiotensin peptide levels in equilibrated heparin plasma samples. […] Following equilibration, plasma angiotensin peptide levels were stabilized by the addition of protease inhibitors and equilibrium peptide levels were subsequently quantified by mass spectrometry. […] Two different mass transitions were measured per analyte and standard and the concentrations were calculated by relating endogenous signals to internal standard signals under consideration of the corresponding response factors determined by calibration curves in human blank plasma.
StSable isotope-labeled aldosterone was added to the stabilized plasma samples at a concentration of 500 pg/ml for internal standardization. […] Two different mass transitions were measured per analyte and standard and the concentrations were calculated by relating endogenous signals to internal standard signals under consideration of the corresponding response factors determined by calibration curves in human blank plasma.

| Compound | change in the AA2R (aldosterone pmol/L divided by equilibrium Ang II pmol/L) |
| --- | --- |
| COCCCOc1cc(C[C@@H](C[C@H](N)[C@@H](O)C[C@H](C(=O)NCC(C)(C)C(N)=O)C(C)C)C(C)C)ccc1OC [Aliskiren] | did not significantly affect |
| CCOC(=O)[C@H](CCc1ccccc1)N[C@@H](C)C(=O)N1CCC[C@H]1C(=O)O [Enalapril] | did not significantly affect |
| CCCCc1nc(Cl)c(CO)n1Cc1ccc(-c2ccccc2-c2nn[nH]n2)cc1 [Losartan] | significant decrease |

What follows are compounds tested on aldosterone-to-renin ratio (ARR) (assay: Aldosterone-to-renin ratio (ARR) before and 4 h after a single dose of a RAS blocker). Settings: 5 healthy volunteers, 4 h post administration vs predose.
Format: in vivo, human
Method: as §1
Single doses of three different anti-hypertensive drugs were administered to 5 healthy volunteers on 3 different treatment days separated by one week. 4 h following administration of a single dose of 10 mg Enalapril (ACE-Inhibitor), 50 mg Losartan (ARB) or 150 mg Aliskiren (Renin-Inhibitor), heparin blood was collected by venous puncture and plasma was separated by centrifugation. Samples were frozen at −80° C. till analysis.
StSable isotope-labeled aldosterone was added to the stabilized plasma samples at a concentration of 500 pg/ml for internal standardization. Following C18-based solid-phase-extraction, samples were subjected to mass spectrometry analysis using a reversed-phase analytical column (Acquity UPLC® C18, Waters) operating in line with a XEVO TQ-S triple quadrupole mass spectrometer (Waters) in MRM mode. Two different mass transitions were measured per analyte and standard and the concentrations were calculated by relating endogenous signals to internal standard signals under consideration of the corresponding response factors determined by calibration curves in human blank plasma.

| Compound | change in the ARR (aldosterone ng/L divided by plasma active renin concentration ng/L) |
| --- | --- |
| COCCCOc1cc(C[C@@H](C[C@H](N)[C@@H](O)C[C@H](C(=O)NCC(C)(C)C(N)=O)C(C)C)C(C)C)ccc1OC [Aliskiren] | highly significant and profound decrease |
| CCOC(=O)[C@H](CCc1ccccc1)N[C@@H](C)C(=O)N1CCC[C@H]1C(=O)O [Enalapril] | highly significant and profound decrease |
| CCCCc1nc(Cl)c(CO)n1Cc1ccc(-c2ccccc2-c2nn[nH]n2)cc1 [Losartan] | highly significant and profound decrease |
